One compound from ChEMBL document CHEMBL1833788, “Selective water-soluble gelatinase inhibitor prodrugs” (J Med Chem, 2011) can be followed below.

In data set [1] the test system is Mus musculus. In words: Prodrug conversion in C57B1/6 mouse assessed as 4-[4-((Thiiran-2-yl)methylsulphonyl)phenoxy]benzamine level in plasma at […], iv administered as single bolus dose after 7 to 8 mins by reversed-phase HPLC/UV analysis. The class given is ADME, organism-based. The following applies: in vivo.
The subject of data set [2] is Mus musculus. In words: Prodrug conversion in C57B1/6 mouse assessed as 4-[4-((Thiiran-2-yl)methylsulphonyl)phenoxy]benzamine level in plasma at […], iv administered as single bolus dose after 42 mins by reversed-phase HPLC/UV analysis. To be noted: in vivo, 0.7 h, read-out: Drug metabolism. The class given is ADME, organism-based.
Data set [3] deals with Mus musculus. In words: Prodrug conversion in C57B1/6 mouse plasma assessed as parent compound level at […], iv administered as single bolus dose after 240 mins by reversed-phase LC/MS analysis. Format: ADME, organism-based. The following applies: in vivo, 4 h, read-out: Drug metabolism.
Data set [4] has as its system Mus musculus. The data set can be described thus: AUC (0 to infinity) in C57B1/6 mouse plasma assessed as 4-[4-((Thiiran-2-yl)methylsulphonyl)phenoxy]benzamine level at […], iv administered as single bolus dose. The following applies: in vivo. Format: ADME, organism-based.
Data set [5] relates to Mus musculus. The data set can be described thus: AUC (0 to infinity) in C57B1/6 mouse plasma assessed as N-(4-(4-(thiiran-2-ylmethylsulfonyl)phenoxy)phenyl)acetamide level at […], iv administered as single bolus dose. The class given is ADME, organism-based. The following applies: in vivo, BLD = below limit of detection.
The subject of data set [6] is Mus musculus. The data set can be described thus: Prodrug conversion in C57B1/6 mouse assessed as 4-[4-((Thiiran-2-yl)methylsulphonyl)phenoxy]benzamine level in plasma at […], iv administered as single bolus dose after 4 to 5 mins by reversed-phase HPLC/UV analysis. Format: ADME, organism-based. To be noted: in vivo.
The subject of data set [7] is Mus musculus. In words: Prodrug conversion in C57B1/6 mouse assessed as N-(4-(4-((Thiiran-2-ylmethyl)sulfonyl)phenoxy)phenyl) hydroxylamine level in urine at […], iv administered as single dose by reversed-phase LC/MS analysis. To be noted: in vivo. The class given is ADME, organism-based.
For data set [8], the system named is Mus musculus. The data set can be described thus: Prodrug conversion in C57B1/6 mouse plasma assessed as parent compound level at […], iv administered as single bolus dose after 11 to 12 mins by reversed-phase LC/MS analysis. The class given is ADME, organism-based. The following applies: in vivo, read-out: Drug metabolism.
In data set [9] the test system is Mus musculus. In words: Prodrug conversion in C57B1/6 mouse assessed as N-(4-(4-(thiiran-2-ylmethylsulfonyl)phenoxy)phenyl)acetamide level in plasma at […], iv administered as single bolus dose after 11 to 12 mins by reversed-phase LC/MS analysis. The following applies: in vivo.

Consider `Cl.N=C(N)NCCC[C@H](N)C(=O)Nc1ccc(Oc2ccc(S(=O)(=O)CC3CS3)cc2)cc1` (some centres undefined), for which the Drug metabolism with Mus musculus [1] is 4.5 µM; in the data set with Mus musculus [6] it was 10.4 µM; in the data set on Mus musculus [7] it was “Not Active”; with Mus musculus [9], 0.149 µM. For the same compound, the concentration with Mus musculus [2] came to 0.207 µM; in the data set on Mus musculus [3], 0.0083 µM; in the data set with Mus musculus [8] it was 1.58 µM. The exposure (AUC) in the data set on Mus musculus [4] is 138 µM·min; in the data set with Mus musculus [5], “BLD”.
